These results are taken from patent publication US9422296B2, “Fast-dissociating dopamine 2 receptor antagonists” (Janssen Pharmaceutica NV, priority 2007, dated 2016).

pIC50: −log10 of the molar value. Read-outs that look alike come from different tables or passages of the source. Where only a bound is given, the exact number is not on record here.

One series concerns the target T1, human D2L receptor (Homo sapiens, UniProt P14416).
T1 construct: expressed in transfected cells
The experiment in a line: Fast dissociation: indirect assay of rate of dissociation from D2 receptor ([3H]spiperone binding after pre-incubation with compound). The note with it: [3H]spiperone binding as % of total binding capacity after 5 min on filter; compound pre-incubated at 4 times its IC50; >50% = faster than clozapine. As to the method: Compounds were first screened for their D2 affinity in a binding assay using [^3H]spiperone and human D2L receptor cell membranes.
Compounds at a concentration of 4 times their IC50 were first incubated for one hour with human D2L receptor cell membranes in a volume of 2 ml at 25° C., then filtered over glass-fibre filter under suction using a 40 well multividor Immediately after, the vacuum was released. 0.4 ml of pre-warmed buffer (25° C.) containing 1 nM [^3H]spiperone was added on the filter for 5 minutes. The incubation was stopped by initiating the vacuum and immediate rinsing with 2×5 ml of ice-cold buffer. The filter-bound radioactivity was measured in a liquid scintillation spectrometer. The principle of the assay is based on the assumption that the faster a compound dissociates from the D2 receptor, the faster [^3H]spiperone binds to the D2 receptor.

For series [1], the target named is T2, human Dopamine D2L receptor (Homo sapiens, UniProt P14416).
T2 construct: expressed in transfected cells; host or cells: CHO cells (membranes)
The experiment in a line: In vitro binding affinity for human D2L receptor ([3H]spiperone). The note with it: membranes of human D2L receptor-transfected CHO cells, read-out: D2L binding pIC50 (converted). An excerpt:
In order to find antipsychotic compounds active against positive and negative symptoms and cognitive impairment, and having an improved safety profile (low EPS incidence and no metabolic disorders), we have screened for compounds selectively interacting with the dopamine D2 receptor and dissociating fast from this receptor, and further having affinity for the dopamine D3 receptor as well as the serotonin 5-HT-6 receptor. Compounds were first screened for their D2 affinity in a binding assay using [^3H]spiperone and human D2L receptor cell membranes.
Pharmacology In Vitro Binding Affinity for Human D2L Receptor
Frozen membranes of human Dopamine D2L receptor-transfected CHO cells were thawed, briefly homogenised using an Ultra-Turrax T25 homogeniser and diluted in Tris-HCl assay buffer containing NaCl, CaCl2, MgCl2, KCl (50, 120, 2, 1, and 5 mM respectively, adjusted to pH 7.7 with HCl) to an appropriate protein concentration optimised for specific and non-specific binding. Radioligand [^3H]Spiperone (NEN, specific activity ˜70 Ci/mmol) was diluted in assay buffer at a concentration of 2 nmol/L. Prepared radioligand (50 μl), along with 50 μl of either the 10% DMSO control, Butaclamol (10^−6 mol/1 final concentration), or compound of interest, was then incubated (30 min, 37° C.) with 400 μl of the prepared membrane solution. Membrane-bound activity was filtered through a Packard Filtermate harvester onto GF/B Unifilterplates and washed with ice-cold Tris-HCl buffer (50 mM; pH 7.7; 6×0.5 ml). Filters were allowed to dry before adding scintillation fluid and counting in a Topcount scintillation counter. Percentage specific bound and competition binding curves were calculated using S-Plus software (Insightful).

The target in series [2] is T3, human Dopamine D3 receptor (Homo sapiens, UniProt P35462).
T3 construct: expressed in transfected cells; host or cells: CHO cells (membranes)
Put plainly: In vitro binding affinity for human D3 receptor ([125I]iodosulpride). The settings on record: for IC50: [125I]iodosulpride, membranes of human D3 receptor-transfected CHO cells, read-out: D3 binding pIC50 (converted). The protocol:
In Vitro Binding Affinity for Human D3 Receptor
Frozen membranes of human Dopamine D3 receptor-transfected CHO cells were thawed, briefly homogenized using an Ultra-Turrax T25 homogeniser and diluted in 50 mM Tris-HCl assay buffer containing 120 mM NaCl, 2 mM CaCl2, 1 mM MgCl2, 5 mM KCl and 0.1% BSA (adjusted to pH 7.4 with HCl) to an appropriate protein concentration optimized for specific and non-specific binding. Radioligand [^125I]Iodosulpride (Amersham, specific activity ˜2000 Ci/mmol) was diluted in assay buffer at a concentration of 2 nM. Prepared radioligand (20 μl), along with 40 μl of either the 10% DMSO control, Risperidone (10^−6M final concentration), or compound of interest, was then incubated with 70 μl of the prepared membrane solution and 70 μl of WGA coated PVT beads (0.25 mg/well final concentration). After shaking for 24 hours at RT plates were counted in a Topcount™ scintillation counter. Percentage specific binding and competition binding curves were calculated using S-Plus software (Insightful).

Series [3] has as its target T4, human Serotonin 5HT6 receptor (Homo sapiens, UniProt P50406).
T4 construct: expressed in transfected cells; host or cells: HEK cells (membranes)
Put plainly: In vitro binding affinity for human 5HT6 receptor ([3H]lysergic acid diethylamide). The settings on record: [3H]LSD, membranes of human 5HT6 receptor-transfected HEK cells; for IC50: read-out: 5-HT6 binding pIC50 (converted). The protocol:
In Vitro Binding Affinity for Human 5HT6 Receptor
Frozen membranes of human Serotonin 5HT6 receptor-transfected HEK cells were thawed, briefly homogenized using an Ultra-Turrax T25 homogeniser and diluted in 50 mM Tris-HCl assay buffer containing 10 mM MgCl2, 1 mM EDTA and 10 μM Pargyline (adjusted to pH 7.4 with HCl) to an appropriate protein concentration optimized for specific and non-specific binding. Radioligand [^3H]Lysergic acid diethylamide (Perkin Elmer, specific activity ˜80 Ci/mmol) was diluted in assay buffer at a concentration of 20 nM. Radioligand (20 μl), along with 40 μl of either the 10% DMSO control, Methiothepine (10^−5 M final concentration), or compound of interest, was then incubated with 70 μl of the prepared membrane solution and 70 μl of WGA coated PVT beads (0.25 mg/well final concentration). After shaking for 24 hours at RT plates were counted in a Topcount™ scintillation counter. Percentage specific binding and competition binding curves were calculated using S-Plus software (Insightful).

For series [4], the system named is subchronic PCP-induced attentional set shifting. The experiment in a line: Reversal of subchronic PCP-induced attentional set shifting in rats. The class given is in vivo. The text has this:
Compound E1 was further found to be active in the ‘Reversal of subchronic PCP-induced attentional set shifting in rats’ test (J. S. Rodefer et al., Neurospychopharmacology (2007), 1-10).

T2 sequence (P14416 whole entry): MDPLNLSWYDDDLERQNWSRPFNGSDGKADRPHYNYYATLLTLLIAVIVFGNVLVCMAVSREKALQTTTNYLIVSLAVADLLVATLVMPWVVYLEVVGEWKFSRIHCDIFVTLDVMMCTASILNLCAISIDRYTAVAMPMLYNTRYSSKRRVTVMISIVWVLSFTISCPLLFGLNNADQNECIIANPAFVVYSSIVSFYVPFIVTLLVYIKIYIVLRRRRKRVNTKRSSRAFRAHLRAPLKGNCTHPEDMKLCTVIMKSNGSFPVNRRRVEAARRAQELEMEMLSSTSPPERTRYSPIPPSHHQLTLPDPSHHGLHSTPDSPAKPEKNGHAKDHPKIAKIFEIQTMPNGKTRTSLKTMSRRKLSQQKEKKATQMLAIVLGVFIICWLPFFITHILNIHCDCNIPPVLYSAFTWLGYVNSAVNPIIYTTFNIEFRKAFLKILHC
T1 sequence (P14416 whole entry): as above
T3 sequence (P35462 whole entry): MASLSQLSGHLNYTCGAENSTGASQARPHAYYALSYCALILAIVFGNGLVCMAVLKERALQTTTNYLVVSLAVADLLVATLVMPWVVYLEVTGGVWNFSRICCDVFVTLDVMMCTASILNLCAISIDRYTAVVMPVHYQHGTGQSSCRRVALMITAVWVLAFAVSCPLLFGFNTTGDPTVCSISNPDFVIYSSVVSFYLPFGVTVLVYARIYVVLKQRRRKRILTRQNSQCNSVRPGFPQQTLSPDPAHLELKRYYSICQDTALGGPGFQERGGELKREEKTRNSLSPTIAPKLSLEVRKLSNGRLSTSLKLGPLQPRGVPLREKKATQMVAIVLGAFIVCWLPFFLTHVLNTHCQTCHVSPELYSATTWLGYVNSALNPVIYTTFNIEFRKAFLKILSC
T4 sequence (P50406 whole entry): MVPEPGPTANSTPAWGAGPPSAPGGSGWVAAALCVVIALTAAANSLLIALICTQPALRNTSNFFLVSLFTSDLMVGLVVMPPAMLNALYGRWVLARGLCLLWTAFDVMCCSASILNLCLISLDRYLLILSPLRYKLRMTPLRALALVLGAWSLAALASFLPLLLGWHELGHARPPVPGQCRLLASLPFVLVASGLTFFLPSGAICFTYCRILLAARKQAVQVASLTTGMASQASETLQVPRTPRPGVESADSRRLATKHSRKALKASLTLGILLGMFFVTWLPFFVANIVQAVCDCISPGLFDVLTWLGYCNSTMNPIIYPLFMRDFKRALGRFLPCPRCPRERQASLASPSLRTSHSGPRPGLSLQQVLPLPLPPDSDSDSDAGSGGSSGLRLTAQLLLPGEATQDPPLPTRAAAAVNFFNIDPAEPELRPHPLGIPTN

Take `Fc1ccc(-c2ccc(-c3cc(N4CCNCC4)nnc3C(F)(F)F)cc2)cc1` [Example E9, 4-(4′-Fluorobiphenyl-4-yl)-6-piperazin-1-yl-3-trifluoromethyl-pyridazine]: the melting point was determined as 161.9 °C. The D2 dissociation at human D2L receptor came out at 48%. For the same compound, the IC50 in series [1] was 794 nM. Also, in series [2], the IC50 was 47.9 nM. In addition, in series [3], the IC50 is 1820 nM.
The compound `Fc1ccc(-c2cc(N3CCNCC3)nnc2C(F)(F)F)cc1` [Example E6, 4-(4-Fluorophenyl)-6-piperazin-1-yl-3-trifluoromethyl-pyridazine] yielded a melting point of 137.4 °C. Further, the D2 dissociation at human D2L receptor is reported as 55%. In addition, the IC50 in series [1] is 372 nM. Also, the pIC50 in series [2] is 7.44. The IC50 in series [3] is 214 nM.
Turning to `FC(F)(F)c1nnc(N2CCN3CCCC3C2)cc1-c1ccccc1` (racemic) [Example E5, 2-(5-Phenyl-6-trifluoromethyl-pyridazin-3-yl)-octahydro-pyrrolo[1,2-a]pyrazine], the D2 dissociation at human D2L receptor was found to be 84%. Besides, the IC50 in series [1] is 1260 nM; in series [2], greater than 10000 nM; in series [3], 1020 nM.
For `CCN1CCN(c2cc(-c3ccccc3)c(C(F)(F)F)nn2)CC1` [Example E2, 6-(4-Ethylpiperazin-1-yl)-4-phenyl-3-trifluoromethyl-pyridazine], the D2 dissociation on human D2L receptor was determined as 80.5%. The values for the IC50 in series [1], in series [2] and in series [3] were 204 nM, 25.1 nM and 3160 nM, respectively.
Consider `Fc1cc(F)cc(CN2CCN(c3cc(-c4ccccc4)c(C(F)(F)F)nn3)CC2)c1` [Example E3, 6-[4-(3,5-Difluorobenzyl)piperazin-1-yl]-4-phenyl-3-trifluoromethyl-pyridazine], for which the melting point was determined as 138.8 °C. For the same compound, the IC50 in series [1] was 617 nM. In series [2], the IC50 is greater than 10000 nM. In series [3], the “5-HT6 binding pIC50” value is given as greater than 5.
`FC(F)(F)c1nnc(N2CCNCC2)cc1-c1ccc(Cl)cc1` [Example E12] registered a melting point of 198.2 °C. The IC50 in series [1] is 3630 nM. The IC50 in series [2] is 347 nM. The IC50 in series [3] is 1740 nM.
Take `FC(F)(F)c1nnc(N2CCNCC2)cc1-c1ccccc1` [Example E1, 4-Phenyl-6-piperazin-1-yl-3-trifluoromethyl-pyridazine]: the melting point was determined as 130.7 °C. Moreover, the D2 dissociation at human D2L receptor stood at 75%. Further, in series [4], the “activity in reversal of subchronic PCP-induced attentional set shifting” value is “active”. For the same compound, the IC50 in series [1] is 1100 nM. Further, the IC50 in series [2] was 66.1 nM. Further, in series [3], the IC50 was 589 nM.
For the compound `Cc1ccccc1-c1cc(N2CCNCC2)nnc1C(F)(F)F` [Example E8, 6-Piperazin-1-yl-4-o-tolyl-3-trifluoromethyl-pyridazine], the D2 dissociation on human D2L receptor turned out to be 78.5%. Also, the IC50 in series [1] is 1000 nM; in series [2], greater than 10000 nM; in series [3], 263 nM.
`N#Cc1nnc(N2CCNCC2)cc1-c1ccccc1` [Example E10, 4-Phenyl-6-piperazin-1-yl-pyridazine-3-carbonitrile] gave a melting point of 271.6 °C. Besides, the D2 dissociation at human D2L receptor came out at 86%. In addition, the IC50 in series [1] was 5620 nM. The IC50 in series [2] was greater than 10000 nM. In addition, the IC50 in series [3] is 4570 nM.
On to `CCCN1CCN(c2cc(-c3ccccc3)c(C(F)(F)F)nn2)CC1` [Example E24], for which the melting point was found to be 129.8 °C. In addition, in series [1], the IC50 was 67.6 nM. In series [2], the IC50 was greater than 10000 nM. Besides, in series [3], the IC50 is 5370 nM.
The matching figures for `Cc1ccc(-c2cc(N3CCNCC3)nnc2C(F)(F)F)cc1` [Example E11]: 110.6 °C, 1260 nM, 89.1 nM and 741 nM.
`CCCCN1CCN(c2cc(-c3ccccc3)c(C(F)(F)F)nn2)CC1` [Example E25] yielded a melting point of 102.9 °C. The IC50 in series [1] is 69.2 nM. The IC50 in series [2] was 2.63 nM. For the same compound, the IC50 in series [3] was 2690 nM.
The matching figures for `FC(F)(F)c1nnc(N2CCN(C3CC3)CC2)cc1-c1ccccc1` [Example E23]: 152 °C, 1860 nM, 275 nM and greater than 10000 nM.
For `Clc1nnc(N2CCNCC2)cc1-c1ccccc1` [Example E20] the same measures were 173.9 °C, 1410 nM, 151 nM and 4370 nM.
Take `Cc1csc(-c2cc(N3CCNCC3)nnc2C(F)(F)F)c1` [Example E30]: the melting point was 98.1 °C. The IC50 in series [1] was 759 nM. In addition, the IC50 in series [2] was 53.7 nM. For the same compound, the IC50 in series [3] was 562 nM.
Consider `FC(F)(F)c1nnc(N2CCNCC2)cc1-c1ccsc1` [Example E7, 6-Piperazin-1-yl-4-thiophen-3-yl-3-trifluoromethyl-pyridazine], for which the melting point worked out at 244.3 °C. The D2 dissociation at human D2L receptor was 81%. Also, the IC50 in series [1] is 871 nM. For the same compound, the IC50 in series [2] was greater than 10000 nM. In addition, the IC50 in series [3] is 1550 nM.

In general, melting point refers to the temperature, or range, at which the solid turns liquid. As a reminder, the pIC50 is −log10 of the IC50, conventionally taken in molar units. Low values mean a high IC50, high ones a low IC50.
